Results: US4304778A, “4-Aminoquinazoline derivatives having fungicidal, anti-insect and acaricidal properties” (Sankyo Company Limited, priority 1978, dated 1981)

How the values were obtained:
[1] = tested on: third instar larvae of the tobacco cutworm; experiment: Repellent action against the third instar larvae of the tobacco cutworm; format: in vivo; set-up: key: -: no ingestion; ±: very little ingestion; +: some ingestion; ++: considerable ingestion; details: cabbage leaves dipped in 500 ppm, 72 hours
From the text: (§1) In the following Examples, wettable powders prepared according to the procedures of Example 4 were used, each powder containing 50% by weight of the active compound of this invention.
Cabbage leaves were dipped for 30 seconds in an aqueous suspension containing 500 ppm of one of the active compounds shown in Table 6. After air-drying, each leaf was placed into a plastic receptacle having a diameter of 8 cm and the third instar larvae (10 per receptacle) of the tobacco cutworm were released onto the leaves. After 72 hours, the extent of ingestion of the leaves was measured, using two receptacles for each test compound. The results are shown in Table 6, using the following notation (which is also employed, with the same meaning, in following Table 9): […]

[2] = tested on: final instar larvae of the diamondback moth (Plutella xylostella); experiment: Repellent and emergence-inhibition effect on the final instar larvae of diamondback moths; format: in vivo; set-up: key to Extent of ingestion: -: no ingestion; ±: very little ingestion; +: some ingestion; ++: considerable ingestion; details: 72 hours; for pest or weed control at 500 ppm: Plutella xylostella, read-out: Emergence-inhibition rate (%); for Extent of ingestion: radish leaves dipped in 500 ppm
From the text: as §1
Leaves of the Japanese radish (Raphanus sativus) were dipped for 30 seconds into a liquid containing 500 ppm of one of the compounds shown in Table 9. After air-drying the leaves, each leaf was placed into a plastic icecream cup (diameter 8 cm) and 15 final instar larvae of the diamondback moth (Plutella xylostella) were placed into each cup. Each test was conducted in duplicate and the results were averaged.

[3] = tested on: Colletotrichum lagenarium; experiment: Effect on anthracnose in cucumbers; format: in vivo; details: cucumber anthracnose; 500 ppm; seven days; cotyledon and first leaf
Description: as §1
Groups of cucumber plants (variety Sagamihanshiro) were planted, two per pot, in a series of Wagner pots (diameter 12 cm) and were used as host plants when the first leaf was fully grown and open. Each test group of three pots was treated with one of the active compounds shown in Table 4 by spraying an aqueous suspension containing 500 ppm of the active compound onto the plants at the rate of 30 ml per 3 pots. After air-drying the plants, a spore suspension of the pathogenic microorganism Colletotrichum lagenarium was sprayed onto the plants and the plants were kept in a wet room for 24 hours at 20°-22° C. and 100% relative humidity. The pots were then placed in a greenhouse at 26° C. and, seven days after the spore suspension had been sprayed on, the percentage diseased area of the cotyledon and the first leaf was calculated.

cockroach larvae = details: 24 hours; 25° C.
Sphaerotheca fuliginea = experiment: Effect on powdery mildew in cucumbers; format: in vivo; details: cucumber powdery mildew; 500 ppm; 10 days
Description: as §1
Cucumber seedlings (variety Sagamihanshiro), planted two per 12 cm diameter pot, were used as host plants at the stage when the first leaf was fully grown and open. Each test group of three pots was treated with one of the active compounds shown in Table 5 by spraying an aqueous suspension containing 500 ppm of the active compound onto the plants at the rate of 20 ml per 3 pots. After air-drying the plants, the host plants were inoculated with the microorganism Sphaerotheca fuliginea by brushing already infected cucumber leaves with a small brush and letting the microorganism fall onto the host plants. The inoculated plants were kept in a greenhouse at 24°-26° C. for 10 days. At the end of this time, the percentage diseased area was measured.

[4] = tested on: cotton aphid (Aphis gossyppi); experiment: Effect on the cotton aphid on cucumbers; format: in vivo; details: 600 ppm; 5 sprayings Sept. 25 to Oct. 30; examined Nov. 9; untreated control 8.7
From the text: as §1
Cucumbers (variety "Tokiwa Hikari No. 3, Type P") were transplanted into a plastic greenhouse on September 12. Using a shoulder sprayer, a liquid containing 600 ppm of one of the compounds shown in Table 11 was sprayed on the surface and reverse side of the leaves on Sept. 25, Oct. 9, 16, 23 and 30. On Nov. 9, the effect on the cotton aphid (Aphis gossyppi) was investigated, sampling 25-30 leaves at random from each test area and calculating the number of colonies on each leaf; there were generally 50-100 aphids per colony. The results are shown as the number of colonies per leaf in Table 11, which also gives the results for a test area where no compound of the invention was applied.

Phytophthora infestans = format: in vivo; details: tomato late blight; 500 ppm; after 5 days; average per leaf
Piricularia oryzae = format: in vivo; details: rice blast; 500 ppm spray; mean, upper two leaves
guppies = experiment: Toxicity to guppies; format: in vivo; details: LC50 after 48 hours classified
Description: In this example the toxicity of the compounds of the invention towards guppies was estimated and is compared with that of corresponding compounds as disclosed and claimed in our co-pending U.S. Application No. 910,117 filed May 30, 1978. The LC50 was determined after 48 hours and the toxicity to guppies was classified into the rankings (i), (ii) and (iii) according to the following classification scheme: […]

Row | Compound | Extent of ingestion [1] | pest or weed control at 500 ppm [2] [%] | Extent of ingestion [2] | Diseased area (%) [3] [%] | Mortality rate (%), 0.5mg test cpd/10 cockroaches/bottle (cockroach larvae) [%] | Mortality rate (%), 1mg test cpd/10 cockroaches/bottle (cockroach larvae) [%] | Diseased area (%) (Sphaerotheca fuliginea) | No. of colonies per leaf [4] [colonies per leaf] | Diseased area (%) (Phytophthora infestans) | No. of disease spots per leaf (Piricularia oryzae) [spots per leaf] | Toxicity ranking (guppies)
1 | Cc1ccc(C(C)C)cc1OCCN(C)c1ncnc2ccccc12 [Compound No. 21, 4-{N-[2-(5-isopropyl-2-methylphenoxy)ethyl]-N-methylamino}quinazoline] | + | 90 | ± | 0 | 90 | 100 | 0 | 1.0 | 12 |  | 
2 | Cc1ccc(COCCN(C)c2ncnc3ccccc23)cc1 [compound 13, 4-{N-methyl-N-[2-(4-methylbenzyloxy)ethyl]amino}quinazoline] |  |  |  |  | 80 | 100 |  |  |  | 2.9 | 
3 | CC(C)c1ccccc1OCCN(C)c1ncnc2ccccc12 [compound 15, 4-{N-[2-(2-isopropylphenoxy)ethyl]-N-methylamino}quinazoline] | ± to + | 60 | ± |  | 80 | 100 | 0 |  | 0 | 3.0 | ii (all fish dead at 10 ppm but alive at 0.5 ppm)
4 | Cc1ccc(OCCN(C)c2ncnc3ccccc23)c(C)c1 [compound 17, 4-{N-[2-(2,4-dimethylphenoxy)ethyl]-N-methylamino}-quinazoline] | + | 50 | ± to + |  | 90 | 100 | 0 |  | 9 | 2.4 | ii (all fish dead at 10 ppm but alive at 0.5 ppm)
5 | Cc1ccc(OCCN(C)c2ncnc3ccccc23)cc1 [compound 18, 4-{N-methyl-N-[2-(4-methylphenoxy)ethyl]amino}quinazoline] |  |  |  |  | 90 | 100 | 8 |  | 16 | 2.6 | 
6 | Cc1cc(Cl)ccc1OCCN(C)c1ncnc2ccccc12 [compound 22, 4-{N-[2-(4-chloro-2-methylphenoxy)ethyl]-N-methylamino}quinazoline] | ± to + | 80 | ± | 0 | 80 | 100 | 0 | 1.1 | 15 |  | 
7 | CCCCCCCCc1ccc(C)c(OCCN(C)c2ncnc3ccccc23)c1 [compound 56, 4-{N-methyl-N-[2-(2-methyl-5-octylphenoxy)ethyl]amino}quinazoline] |  |  |  |  |  |  |  |  |  | 3.2 | 
8 | CCCCCCCCc1ccc(OCCN(C)c2ncnc3ccccc23)c(C)c1 [compound 58, 4-{N-methyl-N-[2-(2-methyl-4-octylphenoxy)ethyl]amino}quinazoline] | ± to + | 85 | ± |  | 90 | 100 |  | 0.5 | 10 |  | 
